ChEMBL document CHEMBL4020813, “The ProTide Prodrug Technology: From the Concept to the Clinic” (J Med Chem, 2018)

Key:
[1] = Tmax in po dosed human; format: ADME, organism-based; conditions: in vivo
[2] = Half life in po dosed human; format: ADME, organism-based; conditions: in vivo
[3] = system: Human immunodeficiency virus 1; assay: Antiviral activity against HIV1 infected in human JM1 cells; format: functional, cell-based; conditions: Human immunodeficiency virus 1, JM1
JM1 = assay: Cytotoxicity against human JM1 cells; format: cell-based
[4] = Cytotoxicity against human HuH7 after 4 to 5 days by Cell-Titer Glo viability assay; format: cell-based, Huh-7; conditions: HuH7 cells
Ebolavirus [5] = assay: Antiviral activity against Ebolavirus infected in human HeLa cells after 48 hrs by immuno-staining assay; format: functional, cell-based; conditions: Orthoebolavirus
[6] = Cytotoxicity against human HeLa after 4 to 5 days by Cell-Titer Glo viability assay; format: cell-based; conditions: HeLa cells
[7] = Half life in human primary macrophages assessed as nucleoside triphosphate level at 10 uM; format: ADME, cell-based; conditions: macrophage
Ebolavirus [8] = assay: Antiviral activity against Ebolavirus H. sapiens-tc/COD/1995/Kikwit infected in rhesus monkey assessed as host survival at 3 mg/kg, iv administered as bolus dose; format: functional; conditions: Orthoebolavirus, in Macaca mulatta
Ebolavirus [9] = assay: Antiviral activity against Ebolavirus H. sapiens-tc/COD/1995/Kikwit infected in rhesus monkey assessed as host survival at 10 mg/kg, iv administered as bolus dose; format: functional; conditions: Orthoebolavirus, in Macaca mulatta
Ebolavirus [10] = assay: Antiviral activity against Ebolavirus infected in human HuH7 cells after 3 days by end point dilution assay; format: functional, cell-based; conditions: Orthoebolavirus, Huh-7, 72 h
[11] = Cytotoxicity against human primary macrophages after 4 to 5 days by Cell-Titer Glo viability assay; format: cell-based, Macrophage
[12] = Half life in rhesus monkey plasma at 10 mg/kg, iv administered as bolus dose by LC-MS/MS analysis; format: ADME, organism-based, Macaca mulatta
Ebolavirus [13] = assay: Antiviral activity against Ebolavirus infected in human primary macrophages after 48 hrs by immuno-staining assay; format: functional; conditions: Orthoebolavirus
HT-29 = assay: Antitumor activity against human HT-29 cells xenografted in nude mouse assessed as tumor growth inhibition relative to control; format: functional
Homo sapiens [14] = organism: Homo sapiens; assay: Reduction in tumor growth in patient with solid malignancies; format: functional
[15] = Half life in human; format: ADME
Homo sapiens [16] = organism: Homo sapiens; assay: Cmax in human assessed as dFdCTP level; format: ADME
[17] = Renal clearance in human at 100 to 800 mg; format: ADME
[18] = Oral bioavailability in portal vein cannulated dog; format: ADME, organism-based, Canis lupus familiaris; conditions: in vivo
[19] = Fraction absorbed in po dosed portal vein cannulated dog; format: ADME, organism-based, Canis lupus familiaris; conditions: in vivo, read-out: Fabs
[20] = Fraction absorbed in human; format: ADME; conditions: read-out: Fabs
Plasma = assay: Protein binding in plasma of patient with end stage renal disease; format: ADME, cell-free; conditions: human
[21] = Protein binding in human plasma; format: ADME, cell-free; conditions: read-out: PPB (converted)
[22] = Drug recovery in human urine at 100 to 800 mg; format: ADME; conditions: read-out: Drug recovery
[23] = Plasma concentration in dog at 5 mg/kg at 1 hr post dose
[24] = Half life in beagle dog intestine
[25] = Half life in human MT2 cells by HPLC analysis
in vivo [26] = conditions: dog, po, 2 mg/kg
in vivo [27] = conditions: dog, po, 20 mg/kg
[28] = Half life in beagle dog hepatic S9 fraction
[29] = Plasma concentration in dog at 5 mg/kg at 0.14 hrs post dose

C[C@]1(F)[C@H](O)[C@@H](CO)O[C@H]1n1ccc(=O)[nH]c1=O
Tmax [1]: 120 to 240 min | half-life [2]: 28.8 to 45 min

COC(=O)[C@H](C)NP(=O)(OC[C@H]1O[C@@H](n2cc(C)c(=O)[nH]c2=O)C[C@@H]1N=[N+]=[N-])Oc1ccc(OC)cc1 (stereo partly specified)
EC50 [3]: 0.8 µM | IC50 (JM1): 100 µM

CCC(CC)COC(=O)[C@H](C)N[P@](=O)(OC[C@H]1O[C@@](C#N)(c2ccc3c(N)ncnn23)[C@H](O)[C@@H]1O)Oc1ccccc1
CC50 [4]: > 20 µM | EC50 (Ebolavirus [5]): 0.14 µM | CC50 [6]: > 20 µM | t1/2 [7]: 960 min | survival at 3 mg/kg (Ebolavirus [8]): 50% | survival at 10 mg/kg (Ebolavirus [9]): 100% | EC50 (Ebolavirus [10]): 0.07 µM | CC50 [11]: > 20 µM | half-life [12]: 23.4 min | EC50 (Ebolavirus [13]): 0.086 µM

O=c1[nH]cc(F)c(=O)[nH]1 [FLUOROURACIL]
TGI (HT-29): 25%

C[C@H](NP(=O)(OC[C@H]1O[C@@H](n2ccc(N)nc2=O)C(F)(F)[C@@H]1O)Oc1ccccc1)C(=O)OCc1ccccc1 (stereo partly specified) [FOSGEMCITABINE PALABENAMIDE]
TGI (Homo sapiens [14]): >30% | half-life [15]: 498 min | Cmax (Homo sapiens [16]): 475 µM

C[C@H](NP(=O)(OC[C@H]1O[C@@H](n2cc(F)c(=O)[nH]c2=O)C[C@@H]1O)Oc1cccc2ccccc12)C(=O)OCc1ccccc1 (stereo partly specified) [FOSIFLOXURIDINE NAFALBENAMIDE]
TGI (HT-29): 47%

N#C[C@@]1(c2ccc3c(N)ncnn23)O[C@H](CO)[C@@H](O)[C@H]1O [GS-441524]
CC50 [4]: > 20 µM | EC50 (Ebolavirus [5]): > 20 µM | CC50 [6]: > 20 µM | EC50 (Ebolavirus [10]): 1.5 µM | CC50 [11]: > 20 µM | EC50 (Ebolavirus [13]): > 20 µM

CC(C)OC(=O)[C@H](C)N[P@](=O)(OC[C@H]1O[C@@H](n2ccc(=O)[nH]c2=O)[C@](C)(F)[C@@H]1O)Oc1ccccc1 [SOFOSBUVIR]
Tmax [1]: 30 to 120 min | CL renal [17]: 238 mL/min | bioavailability [18]: 9.9% | Fa [19]: 36% | Fa [20]: > 80% | PPB (Plasma): 85% | fraction unbound [21]: 0.18 | dose excreted [22]: 3.5%

CC(C)OC(=O)[C@H](C)N[P@](=O)(CO[C@H](C)Cn1cnc2c(N)ncnc21)Oc1ccccc1 [TENOFOVIR ALAFENAMIDE]
concentration at 1 h [23]: 18 µM | half-life [24]: 31 min | half-life [25]: 28.3 min | bioavailability (in vivo [26]): 1.7% | half-life [15]: 92 min | bioavailability (in vivo [27]): 24.7% | half-life [28]: 31 min | concentration at […] [29]: 1.58 µM
